Results reported in patent US8987167B2, “Low volatile amine salts of anionic pesticides” (BASF SE, priority 2009, dated 2015).
Read-outs that look alike come from different tables or passages of the source.

Assays:
[1] = Volatility determined by TGA (thermal gravimetric analysis); format: physicochemical
Method: The volatility of the aqueous solutions of dicamba (480 g/l) or 2,4-D (250 g/l) as prepared in Example 1 was determined by analyzing the wt % loss per minute as calculated by the slope between 400 min and 1200 min of a TGA (thermal gravimetric analysis) analysis. The measurement conditions on a TA Instrument TGA Q50 were as follows: Pan type: Platinum; sample size 25 μl leveling uniformly on pan surface, balance purge flow 40 ml/min; sample purge flow 60 ml/min; temperature procedure: Start at 20° C., ramp 10° C./min to 100° C., then isothermal for 1200 min.
The volatility of the aqueous solutions of glyphosate salts as prepared in Example 6 was determined by analyzing the wt % loss per minute as described in Example 3.

[2] = 30% humidity; for Volatility after 2 weeks (wt % loss) / Volatility after 4 weeks (wt % loss): Petri dish, 480 g/l solution diluted 1:50, 50° C., forced air flow, loss of dicamba acid by HPLC
Method: A dicamba sample of the aqueous solutions of dicamba (480 g/l) as prepared in Example 1 (Table 1, entry 2) was diluted with distilled water in a ratio of 1:50. To help spreading of the samples uniformly on the surface of the plate, Silwet L-77 was added (0.1 wt %). A total of 300 μl of this diluted sample was applied per Petri dish (diameter 5 cm). The dishes were kept at an environment chamber (Barnstead Environ-Cab Lab-line 680A) with forced air flow (air vent out) up to one month at 50° C. and 30% humidity. Afterwards the plates were extracted with acetic acid/methanol and the pesticide quantified by HPLC (Columbus C18 column) to determine the volatile loss of dicamba acid.

[3] = pH 7
[4] = 2,4-D salts, 250 g/l, TGA, normed, dimethylamine salt = 100.0
[5] = 2,4-D salts, aqueous solution 250 g/l, TGA isothermal at 100° C., slope between 400 min and 1200 min
[6] = soybean injury (epinasty and stunting) 14 days after 24 h vapour exposure to Petri dishes treated with 4480 g active ingredient per ha, normalized to 30% for the 2-(-aminoethoxy)ethanol salt
[7] = Dicamba salts, 480 g/l, TGA, normalized, dicamba acid = 100.0
[8] = Dicamba salts, aqueous solution 480 g/l, TGA isothermal at 100° C., slope between 400 min and 1200 min
[9] = Glyphosate salts, aqueous solution 480 g/l, TGA

## CN(CCCN)CCCN.COc1c(Cl)ccc(Cl)c1C(=O)O
Soybean plants; in vivo
  Injury (%): 7%
[1]
  Volatility (normalized): 0.5
  Volatility (wt % loss per min): 0.0003 wt % loss per min

## CN(CCCN)CCCN.O=C(O)CNCP(=O)(O)O
[1]
  Volatility (wt % loss per min): 0.002 wt % loss per min

## NCCNCCO.O=C(O)COc1ccc(Cl)cc1Cl [2,4-D salt: Aminoethylethanolamine]
[1]; [4]
  Volatility (normed): 35.7
[1]; [5]
  Volatility (wt % loss per min): 0.002 wt % loss per min

## NCCNCCN.O=C(O)COc1ccc(Cl)cc1Cl [2,4-D salt: Diethylenetriamine]
[1]; [4]
  Volatility (normed): 13.7
[1]; [5]
  Volatility (wt % loss per min): 0.0008 wt % loss per min

## CNC.O=C(O)COc1ccc(Cl)cc1Cl [2,4-D salt: Dimethylamine, reference compound]
[1]
  Volatility (normed): 100.0
  Volatility (wt % loss per min): 0.006 wt % loss per min

## CN(C)CCCNCCCN(C)C.O=C(O)COc1ccc(Cl)cc1Cl [2,4-D salt: Jeffcat ® Z-130]
[1]; [4]
  Volatility (normed): 14.8
[1]; [5]
  Volatility (wt % loss per min): 0.0008 wt % loss per min

## COc1c(Cl)ccc(Cl)c1C(=O)O [Dicamba acid, dicamba, reference compound]
Soybean plants; [6]
  Injury (%): 67%
[1]; [7]
  Volatility (normalized): 100.0
[1]; [8]
  Volatility (wt % loss per min): 0.060 wt % loss per min

## COc1c(Cl)ccc(Cl)c1C(=O)O.NCCOCCO [Dicamba salt: 2-(-Aminoethoxy)ethanol, dicamba 2-(-Aminoethoxy)ethanol salt, reference compound]
Soybean plants; [6]
  Injury (%): 30%
[1]; [7]
  Volatility (normalized): 5.4
[1]; [8]
  Volatility (wt % loss per min): 0.0032 wt % loss per min
[2]
  Volatility after 2 weeks (wt % loss): 29.3 wt % loss
  Volatility after 4 weeks (wt % loss): 57.0 wt % loss

## COc1c(Cl)ccc(Cl)c1C(=O)O.NCCNCCO [Dicamba salt: Aminoethylethanolamine, aminoethylethanolamine salt of dicamba]
Soybean plants; [6]
  Injury (%): 5%
[1]; [7]
  Volatility (normalized): 3.1
[1]; [8]
  Volatility (wt % loss per min): 0.0018 wt % loss per min
[2]; 50° C., up to one month
  volatility compared to commercial dicamba salt formulations (Petri dish): reduced volatility compared to commercial dicamba salt formulations
[2]
  Volatility after 2 weeks (wt % loss): 6.2 wt % loss
  Volatility after 4 weeks (wt % loss): 20.6 wt % loss

## COc1c(Cl)ccc(Cl)c1C(=O)O.NCCN1CCNCC1 [Dicamba salt: Aminoethylpiperazine]
Soybean plants; [6]
  Injury (%): 19%
[1]; [7]
  Volatility (normalized): 0.4
[1]; [8]
  Volatility (wt % loss per min): 0.0002 wt % loss per min

## COc1c(Cl)ccc(Cl)c1C(=O)O.NCCNCCN [Dicamba salt: Diethylenetriamine]
Soybean plants; [6]
  Injury (%): 14%
[1]; [7]
  Volatility (normalized): 0.7
[1]; [8]
  Volatility (wt % loss per min): 0.0004 wt % loss per min

## CNC.COc1c(Cl)ccc(Cl)c1C(=O)O [Dicamba salt: Dimethylamine, dicamba dimethylamine salt, reference compound]
Soybean plants; in vivo
  Injury (%): 48%
[1]
  Volatility (normalized): 17.8
  Volatility (wt % loss per min): 0.011 wt % loss per min
[2]
  Volatility after 2 weeks (wt % loss): 98.7 wt % loss
  Volatility after 4 weeks (wt % loss): 100 wt % loss

## CC1(C)CC(N)CC(C)(CN)C1.COc1c(Cl)ccc(Cl)c1C(=O)O [Dicamba salt: Isophorone diamine]
Soybean plants; [6]
  Injury (%): 19%
[1]
  Volatility (normalized): 0.4
[1]; [8]
  Volatility (wt % loss per min): 0.0002 wt % loss per min

## CN(C)CCCN(C)CCCN(C)C.COc1c(Cl)ccc(Cl)c1C(=O)O [Dicamba salt: Jeffcat ZR-40]
[1]; [7]
  Volatility (normalized): 5.0
[1]; [8]
  Volatility (wt % loss per min): 0.0030 wt % loss per min

## CN(C)CCCNCCCN(C)C.COc1c(Cl)ccc(Cl)c1C(=O)O [Dicamba salt: Jeffcat ® Z-130]
Soybean plants; [6]
  Injury (%): 5%
[1]; [7]
  Volatility (normalized): 2.9
[1]; [8]
  Volatility (wt % loss per min): 0.0017 wt % loss per min

## NCCN1CCNCC1.O=C(O)CNCP(=O)(O)O [Glyphosate salt: Aminoethylpiperazine]
[1]; [9]
  Volatility (wt % loss per min): 0.002 wt % loss per min

## NCCNCCN.O=C(O)CNCP(=O)(O)O [Glyphosate salt: Diethylenetriamine, glyphosate diethylenetriamine salt, reference compound]
[1]; [9]
  Volatility (wt % loss per min): 0.002 wt % loss per min

## CC1(C)CC(N)CC(C)(CN)C1.O=C(O)CNCP(=O)(O)O (stereo not drawn) [Glyphosate salt: Isophorone diamine]
[1]; [9]
  Volatility (wt % loss per min): 0.002 wt % loss per min

## COc1c(Cl)ccc(Cl)c1C(=O)O.NCCCN1CCOCC1 [aminopropylmorpholine (APM) salt of dicamba, reference compound]
[1]; dicamba salt, 480 g/l (solution could not be prepared), compared with 0.0021 wt % loss per min at 300 g/l
  Volatility expected for a concentration of 480 g/l: expected to be higher
[1]; dicamba salt, aqueous solution 300 g/l, TGA
  Volatility (wt % loss per min): 0.0021 wt % loss per min
[3]
  solubility in water: ≤ 300 mg/mL
